Laboratory results from patent US12090155B2, “Methods” (INTRA-CELLULAR THERAPIES, INC., priority 2019, dated 2024).
“Also recorded” adds a separate entry of the source.

Columns and labels:
[1] = test system: patients with Bipolar I or Bipolar II disorder experiencing a major depressive episode; experiment: Phase 3 placebo-controlled clinical trial, safety and tolerability; assay type: in vivo, human
Procedure: (§1) A multi-center, multi-national, randomized, double-blind, fixed-dose, placebo-controlled clinical trial is conducted substantially in accordance with the following protocol.
(§2) Patients are recruited according to the following criteria: • Major Inclusion Criteria: Male or female subjects of any race, ages 18-75 inclusive, with a clinical diagnosis of Bipolar I or Bipolar II disorder, experiencing a current major depressive episode, and able to provide written informed consent. • Major Exclusion Criteria: Any female subject who is pregnant or breast-feeding, and any subject judged to be medically inappropriate for study participation.
(§3) In the placebo arm, placebo is administered once daily every evening for 6 weeks. […] The study is quadruple-masked (i.e., to participant, care provider, investigator, and outcomes assessor).
(§4) The total study duration is about 10 weeks, including up to 2 weeks screening period (washout of prohibited medications), a 6-week double-blind treatment period, and 2-week safety follow-up period.
Incidence of Adverse Events (AEs) • b. Young Mania Rating Scale (YMRS) • c. Columbia Suicide Severity Rating Scale (C-SSRS) • d. Abnormal Involuntary Movement Scale (AIMS) • e. Barnes Akathisia Rating Scale (BARS) • f. Simpson Angus Scale (SAS) • g. Clinical laboratory evaluations • h. Electrocardiograms (ECGs) • i. Vital sign measurements • j. Physical examination and neurological findings

[2] = test system: patients with Bipolar I or Bipolar II disorder experiencing a major depressive episode; experiment: Phase 3 placebo-controlled clinical trial, efficacy (MADRS, CGI-BP-S); assay type: in vivo, human
Procedure: as §1, §2, §3, §4
The primary outcome measure is the Montgomery-Åsberg Depression Rating Scale (MADRS) [Time Frame: Day 43]. Secondary outcome measures are the Clinical Global Impression Scale, Bipolar version (CGI-BP) [Time Frame: Day 43] and the Quality of Life Enjoyment and Satisfaction Questionnaire-Short Form (Q-LES-Q-SF) [Time Frame: Day 43].

[3] = 42 mg once daily orally for 6 weeks, Day 43, ITT
[4] = 42 mg once daily orally for 6 weeks, Day 43, listed as lumateperone
[5] = 42 mg once daily orally for 6 weeks, change from baseline to Day 43, ITT
[6] = 42 mg once daily, week 6, ITT population

## CN1CCN2c3c(cccc31)[C@@H]1CN(CCCC(=O)c3ccc(F)cc3)CC[C@@H]12 [Lumateperone, 4-((6bR,10aS)-3-methyl-2,3,6b,9,10,10a-hexahydro-1H-pyrido[3′,4′: 4,5]pyrrolo[1,2,3-de]quinoxalin-8(7H)-yl)-1-(4-fluorophenyl)-1-butanone]
[1]; 42 mg daily
  Emergence of mania as measured by the Young Mania Rating Scale (YMRS) and clinical global impression of severity for mania: did not exhibit emergence of mania
  Extrapyramidal symptoms, akathisia, restlessness or other motor side effects (adverse event reports): does not increase akathisia, restlessness, or other movement disorders; also recorded: no adverse event reports of extrapyramidal symptoms
  Metabolic effects (hyperglycemia, dyslipidemia, weight gain): does not have significant metabolic side effects; also recorded: did not appear to have any noticeable metabolic effects
  Overall safety profile / tolerability: favorable safety profile in this trial, comparable to placebo; also recorded: generally safe and well tolerated
  Rate of the most commonly reported adverse events (headache, somnolence and nausea), higher than placebo: greater than 5%
  Rates of akathisia and extrapyramidal symptoms: less than 1%
  Suicidal ideation (adverse event reports): does not increase suicidal ideation; also recorded: no adverse event reports of suicidal ideation
[1]; 42 mg, N = 188
  Number of patients with drug-related TEAE: 78 (41.5) n (%)
  Number of patients with drug-related treatment-emergent SAE: 0 n (%)
  Number of patients with treatment-emergent SAE: 1 (0.5) n (%)
  Number of patients with treatment-emergent death: 0 n (%)
  Subjects discontinued study due to TEAE: 11 (5.9) n (%)
  Subjects discontinued study due to drug-related TEAE: 9 (4.8) n (%)
  Subjects discontinued study due to drug-related treatment-emergent SAE: 0 n (%)
  Subjects discontinued study due to treatment-emergent SAE: 1 (0.5) n (%)
  Subjects who died: 0 n (%)
[1]; 42 mg, N = 188, safety population
  Number of patients with one or more TEAE: 103 (54.8) n (%)
[2]; 42 mg daily, subgroup analysis, Bipolar II disorder
  MADRS total score versus placebo, subgroup of patients with Bipolar II disorder: statistically significant superior versus placebo; also recorded: statistically significant superior to placebo
[2]; 42 mg once daily
  Responder rates and remission rates versus placebo: statistically significant benefits
  Time of first statistically significant separation from placebo on MADRS total score: as early as week 1
[2]; 42 mg once daily orally for 6 weeks, Day 43
  MADRS total score, Effect Size, comparison to placebo at Day 43: −0.56
[2]; [3]
  CGI-BP-S total score, LSMD (SE), comparison to placebo at Day 43: −0.9 (0.22)
  MADRS total score, LSMD (SE), comparison to placebo at Day 43: -4.6
[2]; [4]
  CGI-BP-S total score, Effect Size, comparison to placebo at Day 43: 0.46
  MADRS total score, Effect Size, comparison to placebo at Day 43: 0.56
[2]; [5]
  CGI-BP-S total score, LS Mean (SE) Change at Day 43: −3.5 (0.17)
  MADRS total score, LS Mean (SE) Change at Day 43: −16.7 (0.69)
[2]; 42 mg once daily, 6 weeks
  CGI-S Depression Score, effect size versus placebo: 0.5
[2]; [6]
  MADRS total score, LS mean difference versus placebo: 4.6 points
  MADRS total score, least squares (LS) mean reduction from baseline: 16.7 points
